Data as given in patent publication US11365192B2, “Pyridine compound substituted with azole” (TAISHO PHARMACEUTICAL CO., LTD., priority 2017, dated 2022).

Key:
human CYP4A11 = human CYP4A11 (Homo sapiens (Human), UniProt Q02928); assay: Inhibition test against 20-HETE producing enzyme CYP4A11 (luciferine derivative, luminescence); format: biochemical
Outline: (§1)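 E. coli membranes (100 μg/mL protein) expressing human enzyme, room temperature 60 min, luciferin-derivative luminescence; IC50 from % inhibition. CYP4F2: 50 mM KPO4 pH 7.4, 2.5 μM substrate, 1 mM NADPH. CYP4A11: 100 mM Tris-HCl pH 7.5, 60 μM substrate, NADP+/glucose 6-phosphate/G6PDH regenerating system, 3.3 mM MgCl2.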

human CYP4F2 = human CYP4F2 (Homo sapiens (Human), UniProt P78329); assay: Inhibition test against 20-HETE producing enzyme CYP4F2 (luciferine derivative, luminescence); format: biochemical
Outline: as §1

[1] = E. coli membrane fraction expressing human CYP4A11, 60 μM luciferine derivative, room temperature 60 minutes
[2] = E. coli membrane fraction expressing human CYP4F2, 2.5 μM luciferine derivative, room temperature 60 minutes
[3] = human CYP4A11, luciferine derivative, luminescence
[4] = human CYP4F2, luciferine derivative, luminescence

Sequence of human CYP4F2 (P78329 5-520): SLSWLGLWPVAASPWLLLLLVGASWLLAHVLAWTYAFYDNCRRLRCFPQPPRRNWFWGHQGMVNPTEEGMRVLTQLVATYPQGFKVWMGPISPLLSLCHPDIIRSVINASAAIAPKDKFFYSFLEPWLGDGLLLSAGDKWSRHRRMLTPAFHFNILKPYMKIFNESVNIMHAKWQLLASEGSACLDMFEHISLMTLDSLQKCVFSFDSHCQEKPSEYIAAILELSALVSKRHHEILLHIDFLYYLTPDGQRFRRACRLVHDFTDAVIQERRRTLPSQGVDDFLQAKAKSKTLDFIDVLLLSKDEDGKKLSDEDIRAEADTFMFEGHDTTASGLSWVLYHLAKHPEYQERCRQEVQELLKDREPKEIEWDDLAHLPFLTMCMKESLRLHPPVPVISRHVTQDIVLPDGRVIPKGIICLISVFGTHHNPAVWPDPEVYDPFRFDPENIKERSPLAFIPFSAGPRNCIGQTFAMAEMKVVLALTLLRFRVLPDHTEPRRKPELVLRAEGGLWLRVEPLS
Sequence of human CYP4A11 (Q02928 5-519): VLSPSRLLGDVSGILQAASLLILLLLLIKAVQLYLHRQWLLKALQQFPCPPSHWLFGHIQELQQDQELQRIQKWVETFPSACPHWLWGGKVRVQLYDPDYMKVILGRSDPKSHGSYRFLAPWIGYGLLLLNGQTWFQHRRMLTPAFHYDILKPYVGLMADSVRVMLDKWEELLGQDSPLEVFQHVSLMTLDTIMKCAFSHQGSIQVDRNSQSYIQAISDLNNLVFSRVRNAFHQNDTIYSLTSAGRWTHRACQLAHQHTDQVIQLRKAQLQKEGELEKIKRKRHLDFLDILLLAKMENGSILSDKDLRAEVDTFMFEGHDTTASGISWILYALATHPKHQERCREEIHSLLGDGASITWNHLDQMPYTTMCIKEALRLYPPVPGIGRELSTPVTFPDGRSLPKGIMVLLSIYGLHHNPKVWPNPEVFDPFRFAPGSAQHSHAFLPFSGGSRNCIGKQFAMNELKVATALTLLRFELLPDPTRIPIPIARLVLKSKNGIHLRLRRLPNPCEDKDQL

SMILES	IC50 (human CYP4A11; [1]) [nM]	IC50 (human CYP4F2; [2]) [nM]	IC50 (human CYP4A11; [3]) [nM]	IC50 (human CYP4F2; [4]) [nM]
CC(C)(CCCS(=O)(=O)c1cccc(COc2ccc(-c3ccn[nH]3)nc2)c1)C(=O)O [Example 37-1, 2,2-Dimethyl-5-[3-[[6-(1H-pyrazol-5-yl)-3-pyridinyl]oxymethyl]phenyl] sulfonylpentanoic Acid]	46	32		
O=C(O)CCc1cccc(COc2cnc(-c3ccn[nH]3)c(F)c2)c1 [Example 38-1, 3-[3-[[5-Fluoro-6-(1H-pyrazol-5-yl)-3-pyridinyl]oxymethyl]phenyl]propanoic Acid]	20	1100		
O=C(O)Cc1cccc(COc2ccc(-c3cn[nH]c3)nc2)c1 [Example 38-2, 2-[3-[[6-(1H-Pyrazol-4-yl)-3-pyridinyl]oxymethyl]phenyl]acetic Acid]	11	19000		
Cc1cn[nH]c1-c1ccc(OCC23CCC(C(=O)O)(CC2)CC3)cn1 [Example 38-3, 1-[[6-(4-Methyl-1H-pyrazol-5-yl)-3-pyridinyl]oxymethyl]-4-bicyclo[2.2.2]octanecarboxylic Acid]	35	17000		
O=C(O)Cc1cccc(COc2ccc(-c3ccns3)nc2)c1 [Example 39-1, 2-[3-[[6-(5-Isothiazolyl)-3-pyridinyl]oxymethyl]phenyl]acetic Acid]	5.3	13000		
O=C(O)C12CCC(COc3ccc(-c4ccns4)nc3)(CC1)CC2 [Example 39-2]	18	22000		
O=C(O)Cc1cccc(COc2ccc(-c3cnco3)nc2)c1 [Example 40-1, 2-[3-[[6-(5-Oxazolyl)-3-pyridinyl]oxymethyl]phenyl]acetic Acid]	9.9	28000		
O=C(O)Cc1cccc(COc2ccc(-c3cncs3)nc2)c1 [Example 40-2]	6.9	8200		
NS(=O)(=O)c1cccc(C(=O)N2CCC[C@@H](COc3ccc(-c4ccn[nH]4)nc3)C2)c1 [Example 41-1, 3-[Oxo-[(3R)-3-[[6-(1H-pyrazol-5-yl)-3-pyridinyl]oxymethyl]-1-piperidinyl]methyl]benzenesulfonamide]	250	590		
NS(=O)(=O)c1ccc(C(=O)N2CCC[C@@H](COc3ccc(-c4ccn[nH]4)nc3)C2)cc1 [Example 41-2]	330	450		
O=C(c1ccc(=O)[nH]c1)N1CCC[C@@H](COc2ccc(-c3ccn[nH]3)nc2)C1 [Example 41-3]	570	4300		
O=C(c1cccc(=O)[nH]1)N1CCC[C@@H](COc2ccc(-c3ccn[nH]3)nc2)C1 [Example 41-4]	710	1500		
CCS(=O)(=O)NCC(=O)N1CCC[C@@H](COc2ccc(-c3ccn[nH]3)nc2)C1 [Example 41-5]	1100	550		
NS(=O)(=O)CCCC(=O)N1CCC[C@@H](COc2ccc(-c3ccn[nH]3)nc2)C1 [Example 41-6]	440	320		
CNC(=O)c1cccc(COc2ccc(-c3ccn[nH]3)nc2)c1 [Example 42-1, N-Methyl-3-[[6-(1H-pyrazol-5-yl)-3-pyridinyl]oxymethyl]benzamide]	420	76		
CCCNC(=O)c1cccc(COc2ccc(-c3ccn[nH]3)nc2)c1 [Example 42-2]	110	25		
O=C(NCCO)c1cccc(COc2ccc(-c3ccn[nH]3)nc2)c1 [Example 42-3]	350	210		
CN(C)C(=O)Cc1cccc(COc2ccc(-c3ccn[nH]3)nc2)c1 [Example 42-5]	200	260		

SMILES	IC50 (human CYP4A11; [1]) [nM]	IC50 (human CYP4F2; [2]) [nM]	IC50 (human CYP4A11; [3]) [nM]	IC50 (human CYP4F2; [4]) [nM]
CCCNC(=O)Cc1cccc(COc2ccc(-c3ccn[nH]3)nc2)c1 [Example 42-6]	300	97		
O=C(Cc1cccc(COc2ccc(-c3ccn[nH]3)nc2)c1)NCCO [Example 42-7]	760	1100		
CN(C)C(=O)/C=C/c1cccc(COc2ccc(-c3ccn[nH]3)nc2)c1 [Example 42-16]			210	5.7
O=C(CCc1cccc(COc2cnc(-c3ccn[nH]3)c(F)c2)c1)NCCO [Example 42-18]			58	21
O=C(CCc1cccc(COc2cnc(-c3ccn[nH]3)c(F)c2)c1)N1CC(O)C1 [Example 42-19]			110	47
O=C(CCc1cccc(COc2cnc(-c3ccn[nH]3)c(F)c2)c1)NC1COC1 [Example 42-20]			76	11
CN(C)C(=O)[C@H]1C[C@](O)(c2cccc(COc3ccc(-c4ccn[nH]4)nc3)c2)C1 [Example 42-21]			430	28
CN(C)C(=O)[C@H]1C[C@](O)(c2cc(COc3ccc(-c4ccn[nH]4)nc3)ccc2F)C1 [Example 42-22]			270	99
CNC(=O)C(C)c1cccc(COc2ccc(-c3ccn[nH]3)nc2)c1 (centres unmarked) [Example 42-23]			160	55
CNC(=O)C(C)(C)c1cccc(COc2ccc(-c3ccn[nH]3)nc2)c1 [Example 42-24]			39	150
CO[C@H](C)CNC(=O)CCc1cccc(COc2ccc(-c3ccn[nH]3)nc2)c1 [Example 43-12]			76	40
CN(C)CCNC(=O)CCc1cccc(COc2ccc(-c3ccn[nH]3)nc2)c1 [Example 43-15]			910	280
CN(C)C(=O)C1CC1c1cccc(COc2ccc(-c3ccn[nH]3)nc2)c1 (centres unmarked) [Example 43-16]			190	22
CS(=O)(=O)NC(=O)c1cccc(COc2ccc(-c3ccn[nH]3)nc2)c1 [Example 44-1, N-Methylsulfonyl-3-[[6-(1H-pyrazol-5-yl)-3-pyridinyl]oxymethyl]benzamide]			49	7500
CN(C(=O)c1cccc(COc2ccc(-c3ccn[nH]3)nc2)c1)S(C)(=O)=O [Example 44-2]			340	73
CS(=O)(=O)NC(=O)Cc1cccc(COc2ccc(-c3ccn[nH]3)nc2)c1 [Example 44-3]			44	11000
CN(C(=O)Cc1cccc(COc2ccc(-c3ccn[nH]3)nc2)c1)S(C)(=O)=O [Example 44-4]			410	290

The remaining lines, values ahead:

IC50 (human CYP4A11; [1]) [nM]	IC50 (human CYP4F2; [2]) [nM]	IC50 (human CYP4A11; [3]) [nM]	IC50 (human CYP4F2; [4]) [nM]	SMILES
540	12			CNC(=O)Cc1cccc(COc2ccc(-c3ccn[nH]3)nc2)c1 [Example 42-4]
120	70			CNC(=O)CCc1cccc(COc2ccc(-c3ccn[nH]3)nc2)c1 [Example 42-8]
67	76			CN(C)C(=O)CCc1cccc(COc2ccc(-c3ccn[nH]3)nc2)c1 [Example 42-9]
46	15			CCCNC(=O)CCc1cccc(COc2ccc(-c3ccn[nH]3)nc2)c1 [Example 42-10]
100	95			O=C(CCc1cccc(COc2ccc(-c3ccn[nH]3)nc2)c1)NCCO [Example 42-11]
44	42			O=C(CCc1cccc(COc2ccc(-c3ccn[nH]3)nc2)c1)N1CCC1 [Example 42-12]
150	15			O=C(CCc1cccc(COc2ccc(-c3ccn[nH]3)nc2)c1)N1CCCC1 [Example 42-13]
		240	30	O=C(CCc1cccc(COc2ccc(-c3ccn[nH]3)nc2)c1)N1CCCCC1 [Example 42-14]
		400	140	O=C(CCc1cccc(COc2ccc(-c3ccn[nH]3)nc2)c1)N1CCOCC1 [Example 42-15]
		35	12	O=C(CCc1cccc(COc2cnc(-c3ccn[nH]3)c(F)c2)c1)N1CCC1 [Example 42-17]
		58	52	O=C(CCc1cccc(COc2ccc(-c3ccn[nH]3)nc2)c1)N1CC(F)C1 [Example 43-1, 1-(3-Fluoro-1-azetidinyl)-3-[3-[[6-(1H-pyrazol-5-yl)-3-pyridinyl]oxymethyl]phenyl]-1-propanone]
		59	48	O=C(CCc1cccc(COc2ccc(-c3ccn[nH]3)nc2)c1)N1CC(F)(F)C1 [Example 43-2]
		310	170	CN(CCO)C(=O)CCc1cccc(COc2ccc(-c3ccn[nH]3)nc2)c1 [Example 43-3]
		150	45	O=C(CCc1cccc(COc2ccc(-c3ccn[nH]3)nc2)c1)NC1COC1 [Example 43-4]
		82	40	COCCNC(=O)CCc1cccc(COc2ccc(-c3ccn[nH]3)nc2)c1 [Example 43-5]
		56	92	C[C@@H](O)CNC(=O)CCc1cccc(COc2ccc(-c3ccn[nH]3)nc2)c1 [Example 43-6]
		320	63	C[C@@H](CO)NC(=O)CCc1cccc(COc2ccc(-c3ccn[nH]3)nc2)c1 [Example 43-7]
		120	120	C[C@H](CO)NC(=O)CCc1cccc(COc2ccc(-c3ccn[nH]3)nc2)c1 [Example 43-8]
		130	73	C[C@H](O)CNC(=O)CCc1cccc(COc2ccc(-c3ccn[nH]3)nc2)c1 [Example 43-9]
		140	190	O=C(CCc1cccc(COc2ccc(-c3ccn[nH]3)nc2)c1)N1CC(O)C1 [Example 43-10]
		280	32	O=C(CCc1cccc(COc2ccc(-c3ccn[nH]3)nc2)c1)NCC(=O)N1CCCC1 [Example 43-11]
		48	21	O=C(CCc1cccc(COc2ccc(-c3ccn[nH]3)nc2)c1)NC[C@H]1CCCO1 [Example 43-13]
		52	18	O=C(CCc1cccc(COc2ccc(-c3ccn[nH]3)nc2)c1)NC[C@@H]1CCCO1 [Example 43-14]
